≈ marks a conversion by molar mass, not a printed value.

For 7 molecules, Ratio and MIC results are on record in ChEMBL document CHEMBL1629608, “Variations in amino acid composition of antisense peptide-phosphorodiamidate morpholino oligomer affect potency against Escherichia coli in vitro and in vivo” (Antimicrob Agents Chemother, 2009).

The first assay has as its system Escherichia coli. The experiment in a line: Ratio of compound MIC to ampicillin MIC for Escherichia coli K-12 W3110. Type of assay: functional, K-12 substr. W3110.
Conditions: not given
As to `Cc1cn([C@H]2CN(P(=O)(OC[C@@H]3CN(P(=O)(OC[C@@H]4CN(P(=O)(OC[C@@H]5CN(P(=O)(OC[C@@H]6CN(P(=O)(OC[C@@H]7CN(P(=O)(OC[C@@H]8CN(P(=O)(OC[C@@H]9CN(P(=O)(OC[C@@H]%10CNC[C@H](n%11cnc%12c(=O)[nH]c(N)nc%12%11)O%10)N(C)C)C[C@H](n%10cc(C)c(=O)[nH]c%10=O)O9)N(C)C)C[C@H](n9cnc%10c(=O)[nH]c(N)nc%109)O8)N(C)C)C[C@H](n8cnc9c(N)ncnc98)O7)N(C)C)C[C@H](n7cc(C)c(=O)[nH]c7=O)O6)N(C)C)C[C@H](n6cnc7c(N)ncnc76)O5)N(C)C)C[C@H](n5cnc6c(=O)[nH]c(N)nc65)O4)N(C)C)C[C@H](n4ccc(N)nc4=O)O3)N(C)C)C[C@@H](COP(=O)(N(C)C)N3C[C@@H](COP(=O)(N(C)C)N4C[C@@H](COP(=O)(N(C)C)N5CCN(C(=O)CCNC(=O)CCCCCNC(=O)[C@H](Cc6ccccc6)NC(=O)[C@H](Cc6ccccc6)NC(=O)[C@H](CCCNC(=N)N)NC(=O)[C@H](Cc6ccccc6)NC(=O)[C@H](Cc6ccccc6)NC(=O)[C@H](CCCNC(=N)N)NC(=O)[C@H](Cc6ccccc6)NC(=O)[C@H](Cc6ccccc6)NC(=O)[C@@H](N)CCCNC(=N)N)CC5)O[C@@H](n5ccc(N)nc5=O)C4)O[C@@H](n4cc(C)c(=O)[nH]c4=O)C3)O2)c(=O)[nH]c1=O` (stereo partly drawn), the Ratio was 2.5.

For another assay, the system named is Escherichia coli. As to the kind of experiment: Antibacterial activity against Escherichia coli K-12 W3110 by microdilution method. The conditions noted are these: K-12 substr. W3110. The assay is classed as functional.
In turn, `Cc1cn([C@H]2CN(P(=O)(OC[C@@H]3CN(P(=O)(OC[C@@H]4CN(P(=O)(OC[C@@H]5CN(P(=O)(OC[C@@H]6CN(P(=O)(OC[C@@H]7CN(P(=O)(OC[C@@H]8CN(P(=O)(OC[C@@H]9CN(P(=O)(OC[C@@H]%10CNC[C@H](n%11cnc%12c(=O)[nH]c(N)nc%12%11)O%10)N(C)C)C[C@H](n%10cc(C)c(=O)[nH]c%10=O)O9)N(C)C)C[C@H](n9cnc%10c(=O)[nH]c(N)nc%109)O8)N(C)C)C[C@H](n8cnc9c(N)ncnc98)O7)N(C)C)C[C@H](n7cc(C)c(=O)[nH]c7=O)O6)N(C)C)C[C@H](n6cnc7c(N)ncnc76)O5)N(C)C)C[C@H](n5cnc6c(=O)[nH]c(N)nc65)O4)N(C)C)C[C@H](n4ccc(N)nc4=O)O3)N(C)C)C[C@@H](COP(=O)(N(C)C)N3C[C@@H](COP(=O)(N(C)C)N4C[C@@H](COP(=O)(N(C)C)N5CCN(C(=O)CCNC(=O)CCCCCNC(=O)[C@@H](N)CCCNC(=O)CCCCCNC(=O)[C@@H](N)CCCNC(=O)CCCCCNC(=O)[C@@H](N)CCCNC(=O)CCCCCNC(=O)[C@@H](N)CCCNC(=O)CCCCCNC(=O)[C@@H](N)CCCNC(=O)CCCCCNC(=O)[C@@H](N)CCCN)CC5)O[C@@H](n5ccc(N)nc5=O)C4)O[C@@H](n4cc(C)c(=O)[nH]c4=O)C3)O2)c(=O)[nH]c1=O` (stereo partly drawn) had an MIC of more than 80 µM.
On the same count and under the same terms, the figure for `Cc1cn([C@H]2CN(P(=O)(OC[C@@H]3CN(P(=O)(OC[C@@H]4CN(P(=O)(OC[C@@H]5CN(P(=O)(OC[C@@H]6CN(P(=O)(OC[C@@H]7CN(P(=O)(OC[C@@H]8CN(P(=O)(OC[C@@H]9CN(P(=O)(OC[C@@H]%10CNC[C@H](n%11cnc%12c(=O)[nH]c(N)nc%12%11)O%10)N(C)C)C[C@H](n%10cc(C)c(=O)[nH]c%10=O)O9)N(C)C)C[C@H](n9cnc%10c(=O)[nH]c(N)nc%109)O8)N(C)C)C[C@H](n8cnc9c(N)ncnc98)O7)N(C)C)C[C@H](n7cc(C)c(=O)[nH]c7=O)O6)N(C)C)C[C@H](n6cnc7c(N)ncnc76)O5)N(C)C)C[C@H](n5cnc6c(=O)[nH]c(N)nc65)O4)N(C)C)C[C@H](n4ccc(N)nc4=O)O3)N(C)C)C[C@@H](COP(=O)(N(C)C)N3C[C@@H](COP(=O)(N(C)C)N4C[C@@H](COP(=O)(N(C)C)N5CCN(C(=O)CCNC(=O)CCCCCNC(=O)[C@H](Cc6ccccc6)NC(=O)[C@H](Cc6ccccc6)NC(=O)[C@H](CCCNC(=N)N)NC(=O)[C@H](Cc6ccccc6)NC(=O)[C@H](Cc6ccccc6)NC(=O)[C@H](CCCNC(=N)N)NC(=O)[C@H](Cc6ccccc6)NC(=O)[C@H](Cc6ccccc6)NC(=O)[C@@H](N)CCCNC(=N)N)CC5)O[C@@H](n5ccc(N)nc5=O)C4)O[C@@H](n4cc(C)c(=O)[nH]c4=O)C3)O2)c(=O)[nH]c1=O` (stereo partly drawn) is 2.5 µM (≈ 13.3 µg/mL); for `Cc1cn([C@H]2CN(P(=O)(OC[C@@H]3CN(P(=O)(OC[C@@H]4CN(P(=O)(OC[C@@H]5CN(P(=O)(OC[C@@H]6CN(P(=O)(OC[C@@H]7CN(P(=O)(OC[C@@H]8CN(P(=O)(OC[C@@H]9CN(P(=O)(OC[C@@H]%10CNC[C@H](n%11cnc%12c(=O)[nH]c(N)nc%12%11)O%10)N(C)C)C[C@H](n%10cc(C)c(=O)[nH]c%10=O)O9)N(C)C)C[C@H](n9cnc%10c(=O)[nH]c(N)nc%109)O8)N(C)C)C[C@H](n8cnc9c(N)ncnc98)O7)N(C)C)C[C@H](n7cc(C)c(=O)[nH]c7=O)O6)N(C)C)C[C@H](n6cnc7c(N)ncnc76)O5)N(C)C)C[C@H](n5cnc6c(=O)[nH]c(N)nc65)O4)N(C)C)C[C@H](n4ccc(N)nc4=O)O3)N(C)C)C[C@@H](COP(=O)(N(C)C)N3C[C@@H](COP(=O)(N(C)C)N4C[C@@H](COP(=O)(N(C)C)N5CCN(C(=O)CCNC(=O)CCCCCNC(=O)[C@H](CCCCN)NC(=O)[C@H](Cc6ccccc6)NC(=O)[C@H](Cc6ccccc6)NC(=O)[C@H](CCCCN)NC(=O)[C@H](Cc6ccccc6)NC(=O)[C@H](Cc6ccccc6)NC(=O)[C@H](CCCCN)NC(=O)[C@H](Cc6ccccc6)NC(=O)[C@H](Cc6ccccc6)NC(=O)[C@@H](N)CCCCN)CC5)O[C@@H](n5ccc(N)nc5=O)C4)O[C@@H](n4cc(C)c(=O)[nH]c4=O)C3)O2)c(=O)[nH]c1=O` (stereo partly drawn) it is 10 µM (≈ 53.6 µg/mL); for `Cc1cn([C@H]2CN(P(=O)(OC[C@@H]3CN(P(=O)(OC[C@@H]4CN(P(=O)(OC[C@@H]5CN(P(=O)(OC[C@@H]6CN(P(=O)(OC[C@@H]7CN(P(=O)(OC[C@@H]8CN(P(=O)(OC[C@@H]9CN(P(=O)(OC[C@@H]%10CNC[C@H](n%11cnc%12c(=O)[nH]c(N)nc%12%11)O%10)N(C)C)C[C@H](n%10cc(C)c(=O)[nH]c%10=O)O9)N(C)C)C[C@H](n9cnc%10c(=O)[nH]c(N)nc%109)O8)N(C)C)C[C@H](n8cnc9c(N)ncnc98)O7)N(C)C)C[C@H](n7cc(C)c(=O)[nH]c7=O)O6)N(C)C)C[C@H](n6cnc7c(N)ncnc76)O5)N(C)C)C[C@H](n5cnc6c(=O)[nH]c(N)nc65)O4)N(C)C)C[C@H](n4ccc(N)nc4=O)O3)N(C)C)C[C@@H](COP(=O)(N(C)C)N3C[C@@H](COP(=O)(N(C)C)N4C[C@@H](COP(=O)(N(C)C)N5CCN(C(=O)CCNC(=O)CCCCCNC(=O)[C@H](CCCNC(=N)N)NC(=O)[C@@H](NC(=O)[C@@H](NC(=O)[C@H](CCCNC(=N)N)NC(=O)[C@@H](NC(=O)[C@@H](NC(=O)[C@H](CCCNC(=N)N)NC(=O)[C@@H](NC(=O)[C@@H](NC(=O)[C@@H](N)CCCNC(=N)N)C(C)C)C(C)C)C(C)C)C(C)C)C(C)C)C(C)C)CC5)O[C@@H](n5ccc(N)nc5=O)C4)O[C@@H](n4cc(C)c(=O)[nH]c4=O)C3)O2)c(=O)[nH]c1=O` (stereo partly drawn) it is more than 80 µM.
Same read-out and setting: under `Cc1cn([C@H]2CN(P(=O)(OC[C@@H]3CN(P(=O)(OC[C@@H]4CN(P(=O)(OC[C@@H]5CN(P(=O)(OC[C@@H]6CN(P(=O)(OC[C@@H]7CN(P(=O)(OC[C@@H]8CN(P(=O)(OC[C@@H]9CN(P(=O)(OC[C@@H]%10CNC[C@H](n%11cnc%12c(=O)[nH]c(N)nc%12%11)O%10)N(C)C)C[C@H](n%10cc(C)c(=O)[nH]c%10=O)O9)N(C)C)C[C@H](n9cnc%10c(=O)[nH]c(N)nc%109)O8)N(C)C)C[C@H](n8cnc9c(N)ncnc98)O7)N(C)C)C[C@H](n7cc(C)c(=O)[nH]c7=O)O6)N(C)C)C[C@H](n6cnc7c(N)ncnc76)O5)N(C)C)C[C@H](n5cnc6c(=O)[nH]c(N)nc65)O4)N(C)C)C[C@H](n4ccc(N)nc4=O)O3)N(C)C)C[C@@H](COP(=O)(N(C)C)N3C[C@@H](COP(=O)(N(C)C)N4C[C@@H](COP(=O)(N(C)C)N5CCN(C(=O)CCNC(=O)CCCCCNC(=O)[C@@H](Cc6ccccc6)NC(=O)[C@@H](Cc6ccccc6)NC(=O)[C@@H](CCCNC(=N)N)NC(=O)[C@@H](Cc6ccccc6)NC(=O)[C@@H](Cc6ccccc6)NC(=O)[C@@H](CCCNC(=N)N)NC(=O)[C@@H](Cc6ccccc6)NC(=O)[C@H](Cc6ccccc6)NC(=O)[C@H](N)CCCNC(=N)N)CC5)O[C@@H](n5ccc(N)nc5=O)C4)O[C@@H](n4cc(C)c(=O)[nH]c4=O)C3)O2)c(=O)[nH]c1=O` (stereo partly drawn) stands 5 µM (≈ 26.6 µg/mL).
In turn, `Cc1cn([C@H]2CN(P(=O)(OC[C@@H]3CN(P(=O)(OC[C@@H]4CN(P(=O)(OC[C@@H]5CN(P(=O)(OC[C@@H]6CN(P(=O)(OC[C@@H]7CN(P(=O)(OC[C@@H]8CN(P(=O)(OC[C@@H]9CN(P(=O)(OC[C@@H]%10CNC[C@H](n%11cnc%12c(=O)[nH]c(N)nc%12%11)O%10)N(C)C)C[C@H](n%10cc(C)c(=O)[nH]c%10=O)O9)N(C)C)C[C@H](n9cnc%10c(=O)[nH]c(N)nc%109)O8)N(C)C)C[C@H](n8cnc9c(N)ncnc98)O7)N(C)C)C[C@H](n7cc(C)c(=O)[nH]c7=O)O6)N(C)C)C[C@H](n6cnc7c(N)ncnc76)O5)N(C)C)C[C@H](n5cnc6c(=O)[nH]c(N)nc65)O4)N(C)C)C[C@H](n4ccc(N)nc4=O)O3)N(C)C)C[C@@H](COP(=O)(N(C)C)N3C[C@@H](COP(=O)(N(C)C)N4C[C@@H](COP(=O)(N(C)C)N5CCN(C(=O)CCNC(=O)CCCCCNC(=O)[C@H](CCCNC(=N)N)NC(=O)CCCCCNC(=O)[C@H](CCCNC(=N)N)NC(=O)CCCCCNC(=O)[C@H](CCCNC(=N)N)NC(=O)CCCCCNC(=O)[C@@H](N)CCCNC(=N)N)CC5)O[C@@H](n5ccc(N)nc5=O)C4)O[C@@H](n4cc(C)c(=O)[nH]c4=O)C3)O2)c(=O)[nH]c1=O` (stereo partly drawn) had an MIC of 80 µM (≈ 394 µg/mL).
The same measure, in the same setting: under `Cc1cn([C@H]2CN(P(=O)(OC[C@@H]3CN(P(=O)(OC[C@@H]4CN(P(=O)(OC[C@@H]5CN(P(=O)(OC[C@@H]6CN(P(=O)(OC[C@@H]7CN(P(=O)(OC[C@@H]8CN(P(=O)(OC[C@@H]9CN(P(=O)(OC[C@@H]%10CNC[C@H](n%11cnc%12c(=O)[nH]c(N)nc%12%11)O%10)N(C)C)C[C@H](n%10cc(C)c(=O)[nH]c%10=O)O9)N(C)C)C[C@H](n9cnc%10c(=O)[nH]c(N)nc%109)O8)N(C)C)C[C@H](n8cnc9c(N)ncnc98)O7)N(C)C)C[C@H](n7cc(C)c(=O)[nH]c7=O)O6)N(C)C)C[C@H](n6cnc7c(N)ncnc76)O5)N(C)C)C[C@H](n5cnc6c(=O)[nH]c(N)nc65)O4)N(C)C)C[C@H](n4ccc(N)nc4=O)O3)N(C)C)C[C@@H](COP(=O)(N(C)C)N3C[C@@H](COP(=O)(N(C)C)N4C[C@@H](COP(=O)(N(C)C)N5CCN(C(=O)CCNC(=O)CCCCCNC(=O)[C@H](CCCCN)NC(=O)CCCCCNC(=O)[C@H](CCCCN)NC(=O)CCCCCNC(=O)[C@H](CCCCN)NC(=O)CCCCCNC(=O)[C@H](CCCCN)NC(=O)CCCCCNC(=O)[C@H](CCCCN)NC(=O)CCCCCNC(=O)[C@@H](N)CCCCN)CC5)O[C@@H](n5ccc(N)nc5=O)C4)O[C@@H](n4cc(C)c(=O)[nH]c4=O)C3)O2)c(=O)[nH]c1=O` (stereo partly drawn) stands more than 80 µM.

As usually defined, the MIC is the lowest concentration found to suppress growth.
